Results from patent US12421179B2, “Production method for radiolabeled aryl compound” (OSAKA UNIVERSITY, priority 2017, dated 2025).

Tests used:
[1] = tested on: C6 glioma cell derived from rat; assay: Glioma cell uptake experiment; type: cell-based; settings: for cell uptake reduced by LAT1 inhibitor (BCH) to fraction of uptake: 100 mM BCH addition group; for cell uptake reduced by competitive inhibitor (Phe) to fraction of uptake: 1% Phe addition group; for specificity of cell uptake (via LAT1): concluded from Phe and BCH inhibition; for cell uptake (amount of radioactivity taken up intracellularly): inhibitor-free group, amino acid-free HBSS medium
Procedure: The concentration of the 4-211At-L-phenylalanine (4-^211At-Phe) solution prepared in Example 2 and the 3-^211At-D,L-phenylalanine (3-^211At-Phe) solution prepared in Example 7 were each adjusted to 5 MBq/2 mg·ml. C6 glioma cell derived from rat was seeded on each well of 24-well plate by 5×10^5 cells/well, is and the cells were used in the next day's experiment (cell number: about 1×10^6 cells/well). Before the experiment, the medium was replaced with an amino acid-free HBSS medium (0.5 ml/well). 4-^211At-Phe or 3-^211At-Phe was added to each well of the plate by 10 μl, and the wells were divided into three groups of inhibitor-free group, 1% Phe addition group (competitive inhibitor) and 100 mM BCH addition group (LAT1 inhibitor), and incubated at 37° C. for 30 minutes or 60 minutes. After the incubation, the culture solution was removed, and the cells were washed with PBS, and lysed, and the amount of radioactivity taken up intracellularly was measured. […] Moreover, the cell uptake after 60 minutes was reduced, compared to that after 30 minutes. The competitive inhibitor (Phe) reduced the cell uptake of 4-^211At-Phe and 3-^211At-Phe to ½ to ⅓, and LAT1 inhibitor (BCH) reduced the cell uptake of 4-^211At-Phe and 3-^211At-Phe to ¼ to ⅛. […] Especially, the cell uptake of 3-^211At-Phe was more than that of 4-^211At-Phe, and therefore, 3-211At-Phe can be further expected for the above-mentioned application.

C6 glioma tumor = assay: SPECT imaging of C6 glioma-transplanted rat; type: in vivo; settings: 1 MBq, tail vein; 30 minutes and 3 hours after administration; tumor in both flanks
Procedure: The 4-^211At-L-phenylalanine (4-^211At-Phe) (1 MBq) prepared in Example 2 was administered to the tail vein of the glioma-transplanted rat, and the rat was imaged by SPECT camera (E-cam, Siemens). In both images, the is accumulation of 4-^211At-Phe in the tumor (both flanks, indicated by arrows in the figure) was observed. Therefore, 4-^211At-Phe can be expected to be applied to RI internal therapy or diagnosis for cancer.

Compound	cell uptake reduced by LAT1 inhibitor (BCH) to fraction of uptake [1]	cell uptake reduced by competitive inhibitor (Phe) to fraction of uptake [1]	cell uptake after 60 minutes compared to that after 30 minutes ([1]; C6 glioma cells, 37° C.)	cell uptake compared with 4-^211At-Phe ([1]; C6 glioma cells, 37° C., 30 or 60 minutes)	specificity of cell uptake (via LAT1) [1]	cell uptake (amount of radioactivity taken up intracellularly) ([1]; 37° C., 30 or 60 minutes)	uptake by cancer cells (general statement) ([1]; summary statement in the description)	accumulation in the tumor (SPECT images) (C6 glioma tumor)
NC(Cc1cccc([211At])c1)C(=O)O (racemic) [3-^211At-Phe, 3-^211At-D,L-phenylalanine]	¼ to ⅛	½ to ⅓	reduced	slightly more than that of 4-^211At-Phe	specifically taken up by the cells via LAT1	taken up by the cell	taken up in large amounts by cancer cells	–
N[C@@H](Cc1ccc([211At])cc1)C(=O)O [4-^211At-Phe, 4-^211At-L-phenylalanine]	¼ to ⅛	½ to ⅓	reduced	–	specifically taken up by the cells via LAT1	taken up by the cell	–	observed
